Measured values as given in article PMC7957516, “Biochemical Properties of Tyrosinase from Aspergillus terreus and Penicillium copticola; Undecanoic Acid from Aspergillus flavus, an Endophyte of Moringa oleifera, Is a Novel Potent Tyrosinase Inhibitor” (Molecules, 2021).
In brackets after ≈: the same amount, converted by molar mass.

Assays:
[1] = target: T1, tyrosinase from A. terreus; conditions: 50 mM L-tyrosine, Tris-HCl pH 7.0, 37 °C; 2 h preincubation with inhibitor at 30 °C
T1 construct: gene TYR

[2] = target: T2, tyrosinase from P. copticola; conditions: 50 mM L-tyrosine, Tris-HCl pH 7.0, 37 °C; 2 h preincubation with inhibitor at 30 °C; P. copticola not named in the value sentence, inferred as the second of the two enzymes
T2 construct: gene TYR

IC50 [1]: 21.5 µg/mL (≈ 151 µM)
IC50 [2]: 15.1 µg/mL (≈ 106 µM)
Compound: O=c1cc(CO)occ1O [kojic acid]
